Assay [1] has as its target T1, SMARCA2 (Homo sapiens, UniProt P51531).
T1 construct: endogenous in cells
Kind of assay: SMARCA2 Cellular Degradation Assay (Western blot analysis on Jess platform). Type of assay: cell-based. As to conditions: for DC50 / Dmax: cellular degradation; for Fold Selectivity SMARCA4/2: ratio DC50 SMARCA4 / DC50 SMARCA2. The method in brief:
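Lysates of cells extracted from tumors were prepared in supplemented RIPA buffer, and 5 μg total protein per capillary was analysed by capillary Western (Jess) with anti-SMARCA2 and anti-β-actin antibodies. SMARCA2 electropherogram area was background-subtracted, normalized to actin, and expressed as percent remaining versus vehicle control.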

Assay [2] has as its target T2, SMARCA4 (Homo sapiens, UniProt P51532).
T2 construct: endogenous in cells
Put plainly: Cellular degradation assay, SMARCA4 (Table 1). Type of assay: cell-based.

What is called DC50 is the concentration giving 50% degradation. Read a high DC50 as a less potent degrader. As usually defined, the Dmax is the greatest extent of degradation seen. The low end stands for shallow degradation, the high end for deep degradation.

T2 sequence (P51532 whole entry, species assumed): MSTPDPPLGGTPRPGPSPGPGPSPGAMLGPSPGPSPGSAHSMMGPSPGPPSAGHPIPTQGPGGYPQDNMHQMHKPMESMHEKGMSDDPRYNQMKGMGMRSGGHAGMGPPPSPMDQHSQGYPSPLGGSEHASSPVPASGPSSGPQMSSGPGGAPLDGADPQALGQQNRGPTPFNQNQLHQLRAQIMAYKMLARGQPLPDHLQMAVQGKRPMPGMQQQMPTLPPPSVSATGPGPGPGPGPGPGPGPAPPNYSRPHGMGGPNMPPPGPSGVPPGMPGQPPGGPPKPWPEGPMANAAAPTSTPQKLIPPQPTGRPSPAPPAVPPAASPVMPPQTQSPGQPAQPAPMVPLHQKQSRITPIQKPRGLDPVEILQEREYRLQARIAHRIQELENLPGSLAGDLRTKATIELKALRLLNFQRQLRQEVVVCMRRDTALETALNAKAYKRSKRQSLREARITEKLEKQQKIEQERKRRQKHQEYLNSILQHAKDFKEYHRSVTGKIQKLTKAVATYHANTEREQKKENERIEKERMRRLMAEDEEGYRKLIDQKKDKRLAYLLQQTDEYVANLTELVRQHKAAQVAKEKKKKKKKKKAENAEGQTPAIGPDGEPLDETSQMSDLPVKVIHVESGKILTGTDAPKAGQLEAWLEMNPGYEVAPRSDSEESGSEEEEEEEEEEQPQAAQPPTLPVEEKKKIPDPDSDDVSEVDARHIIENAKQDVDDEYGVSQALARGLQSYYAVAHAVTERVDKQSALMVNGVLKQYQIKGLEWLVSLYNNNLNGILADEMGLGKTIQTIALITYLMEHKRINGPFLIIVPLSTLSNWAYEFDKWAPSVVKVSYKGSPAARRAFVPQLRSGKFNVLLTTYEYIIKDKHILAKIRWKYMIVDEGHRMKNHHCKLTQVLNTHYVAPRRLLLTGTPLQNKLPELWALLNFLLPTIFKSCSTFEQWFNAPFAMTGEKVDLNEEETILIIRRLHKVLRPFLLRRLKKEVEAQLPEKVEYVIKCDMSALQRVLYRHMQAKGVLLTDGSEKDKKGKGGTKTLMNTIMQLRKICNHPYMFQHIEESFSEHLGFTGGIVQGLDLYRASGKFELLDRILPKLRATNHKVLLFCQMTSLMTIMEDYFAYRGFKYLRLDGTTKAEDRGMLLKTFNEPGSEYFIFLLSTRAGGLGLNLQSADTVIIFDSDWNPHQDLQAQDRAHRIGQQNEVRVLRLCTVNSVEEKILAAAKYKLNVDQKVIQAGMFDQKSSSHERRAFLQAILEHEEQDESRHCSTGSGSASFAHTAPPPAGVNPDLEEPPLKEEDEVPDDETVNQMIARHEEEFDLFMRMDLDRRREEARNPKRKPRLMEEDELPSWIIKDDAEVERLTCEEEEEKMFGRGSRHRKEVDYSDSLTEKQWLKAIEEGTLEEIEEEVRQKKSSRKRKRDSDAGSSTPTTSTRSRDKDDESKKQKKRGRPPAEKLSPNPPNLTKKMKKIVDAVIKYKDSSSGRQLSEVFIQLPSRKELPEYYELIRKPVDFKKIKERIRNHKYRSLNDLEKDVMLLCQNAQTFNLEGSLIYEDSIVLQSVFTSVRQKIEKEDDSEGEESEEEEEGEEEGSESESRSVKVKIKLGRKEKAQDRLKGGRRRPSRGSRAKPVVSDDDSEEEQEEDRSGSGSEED
T1 sequence (P51531 whole entry, species assumed): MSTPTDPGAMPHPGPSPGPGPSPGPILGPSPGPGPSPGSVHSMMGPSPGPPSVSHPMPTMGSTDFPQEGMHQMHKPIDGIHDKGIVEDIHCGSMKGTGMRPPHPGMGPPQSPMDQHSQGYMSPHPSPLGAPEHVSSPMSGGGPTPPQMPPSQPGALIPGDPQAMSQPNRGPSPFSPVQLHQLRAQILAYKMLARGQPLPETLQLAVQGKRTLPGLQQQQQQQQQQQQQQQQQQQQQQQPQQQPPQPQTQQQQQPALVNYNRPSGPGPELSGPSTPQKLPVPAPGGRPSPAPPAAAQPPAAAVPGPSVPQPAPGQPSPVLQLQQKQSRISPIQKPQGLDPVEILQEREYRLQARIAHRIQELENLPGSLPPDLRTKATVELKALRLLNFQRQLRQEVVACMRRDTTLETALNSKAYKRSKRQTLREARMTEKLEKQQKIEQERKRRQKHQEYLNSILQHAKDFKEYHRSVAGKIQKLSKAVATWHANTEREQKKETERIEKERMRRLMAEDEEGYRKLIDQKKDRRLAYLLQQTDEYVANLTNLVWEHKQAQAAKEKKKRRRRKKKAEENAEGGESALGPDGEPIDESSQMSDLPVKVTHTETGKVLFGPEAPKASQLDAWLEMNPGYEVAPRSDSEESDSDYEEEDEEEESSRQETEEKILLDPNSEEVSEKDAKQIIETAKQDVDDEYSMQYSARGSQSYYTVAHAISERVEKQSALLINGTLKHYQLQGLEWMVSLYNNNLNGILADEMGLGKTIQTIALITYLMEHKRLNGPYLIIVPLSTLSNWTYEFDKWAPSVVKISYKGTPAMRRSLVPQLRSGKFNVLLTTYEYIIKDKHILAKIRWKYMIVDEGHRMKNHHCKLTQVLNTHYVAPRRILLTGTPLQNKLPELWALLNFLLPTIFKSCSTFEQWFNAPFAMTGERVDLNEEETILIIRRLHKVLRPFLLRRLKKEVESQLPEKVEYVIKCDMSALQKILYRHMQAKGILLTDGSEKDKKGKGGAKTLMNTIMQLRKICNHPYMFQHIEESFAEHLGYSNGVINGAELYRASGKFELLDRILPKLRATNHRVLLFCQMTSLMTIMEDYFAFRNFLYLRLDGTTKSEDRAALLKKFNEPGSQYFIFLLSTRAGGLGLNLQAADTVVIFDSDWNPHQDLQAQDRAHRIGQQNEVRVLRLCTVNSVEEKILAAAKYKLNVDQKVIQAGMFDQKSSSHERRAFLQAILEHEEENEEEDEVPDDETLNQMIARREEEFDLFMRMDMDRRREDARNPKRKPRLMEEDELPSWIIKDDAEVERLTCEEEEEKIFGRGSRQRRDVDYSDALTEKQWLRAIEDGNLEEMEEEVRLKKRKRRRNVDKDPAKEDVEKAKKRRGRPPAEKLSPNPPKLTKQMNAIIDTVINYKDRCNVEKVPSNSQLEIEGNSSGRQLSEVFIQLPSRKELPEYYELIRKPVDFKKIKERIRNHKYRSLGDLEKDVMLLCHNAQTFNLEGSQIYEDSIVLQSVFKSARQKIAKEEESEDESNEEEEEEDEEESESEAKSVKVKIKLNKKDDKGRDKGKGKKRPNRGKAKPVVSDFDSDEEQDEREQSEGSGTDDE

Turning to `O=C1CC[C@@H](c2ccc(N3CCC(CN4CCC(NCC5(c6ccccc6)CCN(c6cnnc(-c7ccccc7O)c6)CC5)CC4)CC3)cc2)C(=O)N1` [Example 135, (s)-3-(4-(4-((4-(((1-(6-(2-hydroxyphenyl)pyridazin-4-yl)-4-phenylpiperidin-4-yl)methyl)amino)piperidin-1-yl)methyl)piperidin-1-yl)phenyl)piperidine-2,6-dione], in assay [1], the DC50 was determined as 20.7 nM, the Dmax was found to be 74.2% and the “Fold Selectivity SMARCA4/2” value is 9. In assay [2], this molecule had a DC50 of 191 nM and a Dmax of 61.9%.

Take `Cn1ccc(OC2(C(=O)N3CC4(CN(CCC5CCN(c6cccc7c6n(C)c(=O)n7C6CCC(=O)NC6=O)CC5)C4)C3)CCN(c3cnnc(-c4ccccc4O)c3)CC2)n1` (racemic) [Example 67, rac-3-(4-(4-(2-(6-(1-(6-(2-hydroxyphenyl)pyridazin-4-yl)-4-((1-methyl-1H-pyrazol-3-yl)oxy)piperidine-4-carbonyl)-2,6-diazaspiro[3.3]heptan-2-yl)ethyl)piperidin-1-yl)-3-methyl-2-oxo-2,3-dihydro-1h-benzo[d]imidazol-1-yl)piperidine-2,6-dione]: in assay [1], the DC50 was 0.4 nM, the Dmax stood at 96.2% and the “Fold Selectivity SMARCA4/2” value is listed as 51. In assay [2], this molecule came in with a DC50 of 20.4 nM and a maximal degradation (Dmax) of 72.9%.

Consider `O=C1CC[C@H](c2ccc(N3CCC(CN4CCN(C(=O)C5(c6ccccc6)CCN(c6cnnc(-c7ccccc7O)c6)CC5)CCC4C(F)(F)F)CC3)cc2)C(=O)N1` (stereo partly drawn) [Example 53, (3R)-3-(4-(4-((4-(1-(6-(2-hydroxyphenyl)pyridazin-4-yl)-4-phenylpiperidine-4-carbonyl)-7-(trifluoromethyl)-1,4-diazepan-1-yl)methyl)piperidin-1-yl)phenyl)piperidine-2,6-dione], for which, in assay [1], the Dmax came to 47.2% and the “Fold Selectivity SMARCA4/2” value was determined as 1. In assay [2], this molecule displayed a Dmax of 9.06%.

Regarding `O=C1CCC(c2ccc(N3CCC(CCN4CC5(C4)CN(C(=O)C4(c6ccccc6F)CCN(c6cnnc(-c7ccccc7O)c6)CC4)C5)CC3)cc2)C(=O)N1` (racemic) [Example 132, rac-(3R)-3-{4-[4-(2-{6-[4-(2-fluorophenyl)-1-[6-(2-hydroxyphenyl)pyridazin-4-yl]piperidine-4-carbonyl]-2,6-diazaspiro[3.3]heptan-2-yl}ethyl)piperidin-1-yl]phenyl}piperidine-2,6-dione], in assay [1], it took 10.2 nM to reach half-maximal degradation (DC50), the Dmax came out at 71.6% and the “Fold Selectivity SMARCA4/2” value came out at 984. The molecule further yielded a Dmax in assay [2] of 15%.

In the case of `O=C1CCC(c2ccc(N3CCC(CN4CC5(C4)CN(C(=O)C4(c6ccc(Cl)c(Cl)c6)CCN(c6cnnc(-c7ccccc7O)c6)CC4)C5)CC3)cc2)C(=O)N1` (racemic) [Example 32, rac-(3R)-3-{4-[4-({6-[4-(3,4-dichlorophenyl)-1-[6-(2-hydroxyphenyl)pyridazin-4-yl]piperidine-4-carbonyl]-2,6-diazaspiro[3.3]heptan-2-yl}methyl)piperidin-1-yl]phenyl}piperidine-2,6-dione], in assay [1], the DC50 turned out to be 71.7 nM, the Dmax turned out to be 63% and the “Fold Selectivity SMARCA4/2” value turned out to be 139.55. In assay [2], this molecule showed a Dmax of 37.2%.

In the case of `CN(C(=O)C1(OC2CC2)CCN(c2cnnc(-c3ccccc3O)c2)CC1)C1CCN(CC2CCN(c3ccc([C@H]4CCC(=O)NC4=O)cc3)CC2)CC1` [Example 114, (r)-4-cyclopropoxy-n-(1-((1-(4-(2,6-dioxopiperidin-3-yl)phenyl)piperidin-4-yl)methyl)piperidin-4-yl)-1-(6-(2-hydroxyphenyl)pyridazin-4-yl)-n-methylpiperidine-4-carboxamide], in assay [1], the DC50 was 9.94 nM, the Dmax stood at 78.6% and the “Fold Selectivity SMARCA4/2” value was found to be 1006. This molecule also returned a Dmax in assay [2] of 49.9%.

For `O=C1CCC(c2ccc(N3CCC(CCN4CC5(C4)CN(C(=O)C4(c6cc7ccccn7n6)CCN(c6cnnc(-c7ccccc7O)c6)CC4)C5)CC3)cc2)C(=O)N1` (racemic) [Example 80, rac-(3R)-3-(4-{4-[2-(6-{1-[6-(2-hydroxyphenyl)pyridazin-4-yl]-4-{pyrazolo[1,5-a]pyridin-2-yl}piperidine-4-carbonyl}-2,6-diazaspiro[3.3]heptan-2-yl)ethyl]piperidin-1-yl}phenyl)piperidine-2,6-dione], in assay [1], the DC50 is 14.2 nM, the Dmax turned out to be 60% and the “Fold Selectivity SMARCA4/2” value stood at 705. In assay [2], this molecule registered a Dmax of 21.9%.

Regarding `CC1(C(=O)N2CCN(c3ccc(C4CCC(=O)NC4=O)cc3)CC2)CCN(C(=O)C2(c3ccccc3)CCN(c3cnnc(-c4ccccc4O)c3)CC2)CC1` (racemic) [Example 21, rac-(3R)-3-{4-[4-(1-{1-[6-(2-hydroxyphenyl)pyridazin-4-yl]-4-phenylpiperidine-4-carbonyl}-4-methylpiperidine-4-carbonyl)piperazin-1-yl]phenyl}piperidine-2,6-dione], the results for the Dmax in assay [1] and in assay [2] were 32% and 19.3%, respectively. Further, in assay [1], the “Fold Selectivity SMARCA4/2” value was found to be 1.

Regarding `CN(C(=O)C1(c2cc3ccccn3n2)CCN(c2cnnc(-c3ccccc3O)c2)CC1)C1CCN(CC2CCN(c3ccc(C4CCC(=O)NC4=O)cc3)CC2)CC1` (racemic) [Example 97, rac-N-{1-[(1-{4-[(3R)-2,6-dioxopiperidin-3-yl]phenyl}piperidin-4-yl)methyl]piperidin-4-yl}-1-[6-(2-hydroxyphenyl)pyridazin-4-yl]-N-methyl-4-{pyrazolo[1,5-a]pyridin-2-yl}piperidine-4-carboxamide], in assay [1], the half-maximal degradation concentration (DC50) came to 3.14 nM, the Dmax was found to be 86.6% and the “Fold Selectivity SMARCA4/2” value is 7. In assay [2], this molecule showed a DC50 of 20.7 nM and a Dmax of 65.8%.

As for `O=C1CC[C@H](c2ccc(N3CCC(CN4CC(F)C5(C4)CN(C(=O)C4(c6ccccc6)CCN(c6cnnc(-c7ccccc7O)c6)CC4)C5)CC3)cc2)C(=O)N1` (stereo partly drawn) [Example 25, (3R)-3-(4-{4-[(8-fluoro-2-{1-[6-(2-hydroxyphenyl)pyridazin-4-yl]-4-phenylpiperidine-4-carbonyl}-2,6-diazaspiro[3.4]octan-6-yl)methyl]piperidin-1-yl}phenyl)piperidine-2,6-dione], in assay [1], the half-maximal degradation concentration (DC50) was found to be 80.7 nM, the Dmax amounted to 61.5% and the “Fold Selectivity SMARCA4/2” value is given as 123.86. Also, the Dmax in assay [2] was 29.4%.

On to `O=C1CC[C@H](c2ccc(N3CCC(CCN4CCC(OCC(F)(F)F)(C(=O)NCC5(c6ccccc6)CCN(c6cnnc(-c7ccccc7O)c6)CC5)CC4)CC3)cc2)C(=O)N1` (racemic) [Example 105, rac-(r)-1-(2-(1-(4-(2,6-dioxopiperidin-3-yl)phenyl)piperidin-4-yl)ethyl)-n-((1-(6-(2-hydroxyphenyl)pyridazin-4-yl)-4-phenylpiperidin-4-yl)methyl)-4-(2,2,2-trifluoroethoxy)piperidine-4-carboxamide], for which, in assay [1], the DC50 came out at 4.98 nM, the Dmax is 92.2% and the “Fold Selectivity SMARCA4/2” value is 12. Also, in assay [2], it took 57.5 nM to reach half-maximal degradation (DC50) and the Dmax came to 73.1%.

For the molecule `O=C1CC[C@@H](c2cccc(N3CCC(CN4CCC5(CC4)CN(C(=O)C4(c6ccccc6)CCN(c6cnnc(-c7ccccc7O)c6)CC4)C5)CC3)c2)C(=O)N1` (racemic) [Example 101, rac-®-3-(3-(4-((2-(1-(6-(2-hydroxyphenyl)pyridazin-4-yl)-4-phenylpiperidine-4-carbonyl)-2,7-diazaspiro[3.5]nonan-7-yl)methyl)piperidin-1-yl)phenyl)piperidine-2,6-dione], in assay [1], the DC50 was 19.5 nM, the Dmax was found to be 71% and the “Fold Selectivity SMARCA4/2” value is on record as 6. Also, in assay [2], half-maximal degradation (DC50) was put at 114 nM and the Dmax is 60.2%.

On to `O=C1CC[C@@H](c2ccc(C3CCN(CC(=O)N4C[C@@H]5[C@H](C4)[C@H]5C(=O)NCC4(c5ccccc5)CCN(c5cnnc(-c6ccccc6O)c5)CC4)CC3)cc2)C(=O)N1` (racemic) [Example 73, (1R,5S,6S)-3-[2-(4-{4-[(3RS)-2,6-dioxopiperidin-3-yl]phenyl}piperidin-1-yl)acetyl]-N-({1-[6-(2-hydroxyphenyl)pyridazin-4-yl]-4-phenylpiperidin-4-yl}methyl)-3-azabicyclo[3.1.0]hexane-6-carboxamide], for which, in assay [1], the DC50 was found to be 11 nM, the Dmax is 79.8% and the “Fold Selectivity SMARCA4/2” value is on record as 910. Moreover, the Dmax in assay [2] is 21%.

Regarding `CN(CC1(c2ccccc2)CCN(c2cnnc(-c3ccccc3O)c2)CC1)C1CCN(C(=O)C2CCN(c3ccc(C4CCC(=O)NC4=O)cc3)CC2)CC1` (racemic) [Example 142, rac-(r)-3-(4-(4-(4-(((1-(6-(2-hydroxyphenyl)pyridazin-4-yl)-4-phenylpiperidin-4-yl)methyl)(methyl)amino)piperidine-1-carbonyl)piperidin-1-yl)phenyl)piperidine-2,6-dione], in assay [1], the DC50 was 24.5 nM, the Dmax stood at 69.9% and the “Fold Selectivity SMARCA4/2” value was 3. In addition, in assay [2], the DC50 was determined as 84.8 nM and the Dmax came out at 60%.

For `O=C1CCC(c2ccc(OC3CCN(C(=O)C4(c5ccccc5)CCN(c5cnnc(-c6ccccc6O)c5)CC4)CC3)cc2)C(=O)N1` (racemic) [Example 4, rac-(3R)-3-{4-[(1-{1-[6-(2-hydroxyphenyl)pyridazin-4-yl]-4-phenylpiperidine-4-carbonyl}piperidin-4-yl)oxy]phenyl}piperidine-2,6-dione], in assay [1], the Dmax came out at 16.4% and the “Fold Selectivity SMARCA4/2” value was 1. For the same molecule, the Dmax in assay [2] was 9.4%.
